According to ChEMBL document CHEMBL4033694, “Synthesis, antimycobacterial activity and docking study of 2-aroyl-[1]benzopyrano[4,3-c]pyrazol-4(1H)-one derivatives and related hydrazide-hydrazones” (Bioorg Med Chem Lett, 2017):
≈ marks a conversion by molar mass, not a printed value. Where a name gives a salt, the structure may show the parent alone.

What was measured:
[1] = Stability of the compound in DMSO-d6 solvent measured every 8 hrs for 12 days by 1H NMR spectra analysis; assay type: physicochemical; conditions: 288 h
[2] = Stability of the compound in DMSO-d6 solvent/middlebrook 7H9 broth media after 16 hrs by 1H NMR spectra analysis; assay type: physicochemical
[3] = Thermal stability of the compound in DMSO-d6 solvent at 37 degC by 1H NMR spectra analysis; assay type: physicochemical
[4] = Solubility of the compound in MeOH; assay type: physicochemical
[5] = Solubility of the compound in EtOH; assay type: physicochemical
[6] = Solubility of the compound in CHCl3; assay type: physicochemical
[7] = Solubility of the compound in H2O; assay type: physicochemical
[8] = system: Mycobacterium tuberculosis; experiment: Antimicrobial activity against Mycobacterium tuberculosis H37Rv after 7 days by resazurin microtiter assay; assay type: functional; conditions: 168 h
HEK-293T = experiment: Cytotoxicity against HEK293T cells after 72 hrs by MTT assay; assay type: cell-based; conditions: Homo sapiens
[9] = Selectivity index, ratio of IC50 for HEK293T cells to MIC for Mycobacterium tuberculosis H37Rv; assay type: toxicity; conditions: human, read-out: Selectivity Index

SMILES	Stability [1]	Stability [2]	Stability [3]	solubility [4]	solubility [5]	solubility [6]	solubility [7]	MIC [8] [µM]	IC50 (HEK-293T) [µM]	selectivity ratio [9]
CN(C)c1ccc(C(=O)n2cc3c(=O)oc4ccccc4c3n2)cc1	Stable	Stable	Stable	Insoluble	Insoluble	Insoluble	Insoluble	0.59 (≈ 0.197 µg/mL)	> 200	> 408
O=C(c1ccc(O)cc1)n1cc2c(=O)oc3ccccc3c2n1								0.32 (≈ 0.098 µg/mL)	> 200	> 625
COc1ccc(C(=O)N/N=C/c2c(Cl)c3ccccc3oc2=O)cc1	Stable	Stable	Stable	Insoluble	Insoluble	Insoluble	Insoluble	0.28 (≈ 0.0999 µg/mL)	113	403
O=C(N/N=C/c1c(Cl)c2ccccc2oc1=O)c1ccc(O)cc1O								0.56 (≈ 0.201 µg/mL)		
O=C(N/N=C/c1c(Cl)c2ccccc2oc1=O)c1ccc(Cl)cc1	Stable	Stable	Stable	Insoluble	Insoluble	Insoluble	Insoluble	0.55 (≈ 0.199 µg/mL)	21	33
COc1ccc(C(=O)n2cc3c(=O)oc4ccccc4c3n2)cc1	Stable	Stable	Stable	Insoluble	Insoluble	Insoluble	Insoluble	0.62 (≈ 0.199 µg/mL)	> 200	> 645
O=C(c1ccc(O)cc1O)n1cc2c(=O)oc3ccccc3c2n1	Stable	Stable	Stable	Insoluble	Insoluble	Insoluble	Insoluble	0.62 (≈ 0.2 µg/mL)	> 200	> 308
CN(C)c1ccc(C(=O)N/N=C/c2c(Cl)c3ccccc3oc2=O)cc1	Stable	Stable	Stable	Insoluble	Insoluble	Insoluble	Insoluble	0.54 (≈ 0.2 µg/mL)	18.7	20
O=C(c1ccco1)n1cc2c(=O)oc3ccccc3c2n1								0.72 (≈ 0.202 µg/mL)	> 200	> 282
Cc1occc1C(=O)n1cc2c(=O)oc3ccccc3c2n1								1.69 (≈ 0.497 µg/mL)	> 200	> 119
O=C(N/N=C/c1c(Cl)c2ccccc2oc1=O)c1ccco1	Stable	Stable	Stable	Insoluble	Insoluble	Insoluble	Insoluble	0.63 (≈ 0.2 µg/mL)	63.6	236
CC[C@@H](CO)NCCN[C@@H](CC)CO [ETHAMBUTOL HYDROCHLORIDE]								1.46		
NNC(=O)c1ccncc1 [ISONIAZID]								0.79 (≈ 0.108 µg/mL)		
